Test results published in the supplement of paper PMC10307832.

Legend:
Experiment in all cases: relative viability (nuclei count vs DMSO), 5 days (fraction); higher = more cells survive
Elesclomol + OSI-027 = compound: CN(NC(=O)CC(=O)NN(C)C(=S)c1ccccc1)C(=S)c1ccccc1 [Elesclomol] + COc1cccc2cc(-c3nc([C@H]4CC[C@H](C(=O)O)CC4)n4ncnc(N)c34)[nH]c12 [OSI-027] (partner 0.5 µM)
How it was run: (§1)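 Nuclei were stained with Hoechst during a one-step fixation (final 0.05% Triton X-100, 1% formaldehyde, 1 ug/ml Hoechst) carried out 5 days after dosing, then counted on 4× images. The cells, lung cancer lines in 1536-well plates, had been dosed by pin tool the day after seeding with one drug alone or a fixed anchor-drug dose plus five library-drug doses (not always all listed) in √10 steps. Relative viability is the nuclei count in treated wells divided by that in vehicle wells, and each value is the median of duplicate plates.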

Elesclomol + Trametinib = compound: CN(NC(=O)CC(=O)NN(C)C(=S)c1ccccc1)C(=S)c1ccccc1 [Elesclomol] + CC(=O)Nc1cccc(-n2c(=O)n(C3CC3)c(=O)c3c(Nc4ccc(I)cc4F)n(C)c(=O)c(C)c32)c1 [Trametinib] (partner 0.02 µM)
How it was run: as §1

Elesclomol + Luminespib = compound: CN(NC(=O)CC(=O)NN(C)C(=S)c1ccccc1)C(=S)c1ccccc1 [Elesclomol] + CCNC(=O)c1noc(-c2cc(C(C)C)c(O)cc2O)c1-c1ccc(CN2CCOCC2)cc1 [Luminespib] (partner 0.01 µM)
How it was run: as §1

Elesclomol + Vorinostat = compound: CN(NC(=O)CC(=O)NN(C)C(=S)c1ccccc1)C(=S)c1ccccc1 [Elesclomol] + O=C(CCCCCCC(=O)Nc1ccccc1)NO [Vorinostat] (partner 1 µM)
How it was run: as §1

Elesclomol + AZD7762 = compound: CN(NC(=O)CC(=O)NN(C)C(=S)c1ccccc1)C(=S)c1ccccc1 [Elesclomol] + NC(=O)Nc1cc(-c2cccc(F)c2)sc1C(=O)N[C@H]1CCCNC1 [AZD7762] (partner 0.2 µM)
How it was run: as §1

Row | Cell Line | relative viability (Elesclomol + OSI-027; first compound 0.003162 µM) | relative viability (Elesclomol + OSI-027; first compound 0.01 µM) | relative viability (Elesclomol + OSI-027; first compound 0.03162 µM) | relative viability (Elesclomol + OSI-027; first compound 0.1 µM) | relative viability (Elesclomol + Trametinib; first compound 0.003162 µM) | relative viability (Elesclomol + Trametinib; first compound 0.01 µM) | relative viability (Elesclomol + Trametinib; first compound 0.03162 µM) | relative viability (Elesclomol + Trametinib; first compound 0.1 µM) | relative viability (Elesclomol + Luminespib; first compound 0.003162 µM) | relative viability (Elesclomol + Luminespib; first compound 0.01 µM) | relative viability (Elesclomol + Luminespib; first compound 0.03162 µM) | relative viability (Elesclomol + Luminespib; first compound 0.1 µM) | relative viability (Elesclomol + Vorinostat; first compound 0.003162 µM) | relative viability (Elesclomol + Vorinostat; first compound 0.01 µM) | relative viability (Elesclomol + Vorinostat; first compound 0.03162 µM) | relative viability (Elesclomol + Vorinostat; first compound 0.1 µM) | relative viability (Elesclomol + AZD7762; first compound 0.003162 µM) | relative viability (Elesclomol + AZD7762; first compound 0.01 µM) | relative viability (Elesclomol + AZD7762; first compound 0.03162 µM) | relative viability (Elesclomol + AZD7762; first compound 0.1 µM)
1 | HCC-827 | 0.741 | 0.758 | 0.722 | 0.532 | 0.571 | 0.442 | 0.555 | 0.504 | 0.586 | 0.54 | 0.579 | 0.473 | 0.759 | 0.777 | 0.742 | 0.767 | 0.25 | 0.253 | 0.163 | 0.191
2 | HOP-62 | 0.823 | 0.717 | 0.701 | 0.316 | 0.397 | 0.385 | 0.386 | 0.237 | 0.877 | 0.892 | 0.962 | 0.554 | 0.659 | 0.469 | 0.477 | 0.136 | 0.545 | 0.576 | 0.389 | 0.104
3 | IA-LM | – | – | – | – | – | – | – | – | – | – | – | – | 0.863 | 0.858 | 0.999 | 0.847 | – | – | – | –
4 | LC-2-ad | 0.52 | 0.231 | 0.273 | 0.276 | 0.888 | 0.811 | 0.272 | 0.197 | 0.497 | 0.47 | 0.33 | 0.265 | 0.642 | 0.608 | 0.24 | 0.169 | 0.874 | 0.819 | 0.231 | 0.136
5 | LCLC-97TM1 | 0.549 | 0.164 | 0.49 | 0.15 | 0.198 | 0.192 | 0.195 | 0.0969 | 0.791 | 0.877 | 0.781 | 0.247 | 0.724 | 0.283 | 0.707 | 0.0661 | 0.234 | 0.158 | 0.16 | 0.0576
6 | LCLC-103H | 0.461 | 0.409 | 0.463 | 0.237 | 0.637 | 0.671 | 0.686 | 0.683 | 0.903 | 0.734 | 1.01 | 0.435 | 0.82 | 0.496 | 0.877 | 0.568 | 0.817 | 0.639 | 0.863 | 0.692
7 | LK-2 | 0.232 | 0.224 | 0.179 | 0.116 | 0.468 | 0.454 | 0.428 | 0.115 | 0.197 | 0.172 | 0.178 | 0.136 | 0.395 | 0.232 | 0.167 | 0.121 | – | 0.37 | 0.279 | 0.0458
8 | NCI-H520 | 0.23 | 0.293 | 0.224 | 0.14 | 0.789 | 0.65 | 0.301 | 0.137 | 0.238 | 0.188 | 0.193 | 0.164 | 0.775 | 0.662 | 0.225 | 0.0994 | – | – | – | –
9 | NCI-H661 | 0.617 | 0.283 | 0.242 | 0.168 | 0.565 | 0.404 | 0.314 | 0.244 | 0.845 | 0.326 | 0.282 | 0.214 | 0.768 | 0.565 | 0.304 | 0.26 | – | – | – | –
10 | NCI-H1563 | 0.647 | 0.606 | 0.52 | 0.459 | – | – | – | – | 0.518 | 0.472 | 0.471 | 0.432 | – | – | – | – | – | – | – | –
11 | NCI-H1650 | 0.221 | 0.201 | 0.151 | 0.132 | 0.202 | 0.188 | 0.116 | 0.102 | 0.156 | 0.206 | 0.201 | 0.148 | 0.3 | 0.22 | 0.146 | 0.11 | – | – | – | –
12 | NCI-H1703 | – | – | – | – | – | – | – | – | – | – | – | – | – | – | – | – | 0.132 | 0.0974 | 0.124 | 0.0978
13 | NCI-H1792 | 0.724 | 0.547 | 0.67 | 0.61 | 0.367 | – | 0.366 | 0.267 | 0.385 | 0.354 | 0.431 | 0.329 | – | – | – | – | 0.666 | – | 0.608 | 0.257
14 | NCI-H2009 | 0.448 | 0.131 | 0.126 | 0.0949 | 0.283 | 0.259 | 0.15 | 0.0957 | 0.977 | 0.494 | 0.167 | 0.116 | 0.679 | 0.279 | 0.162 | 0.0886 | – | – | – | –
15 | NCI-H2023 | 0.351 | 0.128 | 0.0471 | 0.0389 | 0.469 | 0.149 | 0.0579 | 0.045 | 0.658 | 0.376 | 0.134 | 0.0435 | 0.418 | 0.0842 | 0.0465 | 0.0461 | – | – | – | –
16 | NCI-H2228 | 0.568 | 0.27 | 0.188 | 0.0467 | 0.573 | 0.228 | 0.177 | 0.0514 | 0.163 | 0.152 | 0.123 | 0.0703 | 0.628 | 0.177 | 0.125 | 0.0717 | – | – | – | –
17 | SK-LU-1 | 0.319 | 0.271 | 0.211 | 0.0858 | 0.517 | 0.316 | 0.287 | 0.338 | 0.206 | 0.193 | 0.158 | 0.124 | 0.83 | 0.659 | 0.471 | 0.336 | – | – | – | –
18 | SK-MES-1 | 0.695 | 0.196 | 0.266 | 0.395 | 0.584 | 0.635 | 0.501 | 0.415 | 0.922 | 0.713 | 0.274 | 0.295 | 1.13 | 0.481 | 0.425 | 0.284 | – | – | – | –
19 | SW 1573 | 0.167 | 0.107 | 0.0847 | 0.0105 | 0.192 | 0.115 | 0.0701 | 0.0281 | 0.154 | 0.0972 | 0.0704 | 0.0142 | 0.331 | 0.107 | 0.112 | 0.0259 | – | – | – | –
20 | UMC-11 | 0.482 | 0.428 | 0.396 | 0.336 | 0.703 | 0.653 | 0.407 | 0.369 | 1.04 | 1.02 | 0.604 | 0.413 | 0.391 | 0.333 | 0.411 | 0.255 | – | – | – | –
